{
  "source": "patent US9040717B2",
  "about": "“Pyrazole-amide compounds and pharmaceutical use thereof” (JAPAN TOBACCO INC., priority 2013, dated 2015)",
  "key": {"[1]": {"tested_on": "adipose tissue PDH activity", "test": "Ex vivo PDH activation assay, adipose tissue", "type": "in vivo, Sprague-Dawley rats", "conditions": "non-fasting SD rats, vehicle 31 ± 10, mean ± S.D. (n = 3)", "procedure": "(§1) The action of test compound on tissue PDH activity was evaluated. NADH production was detected via p-iodonitrotetrazolium violet (INT)-coupled system to measure PDH activity.\n(§2) Normal male Sprague-Dawley rats were randomly allocated to the vehicle group and the test compound groups. The vehicle (0.5% aqueous methylcellulose solution, 5 mL/kg) or the test compound was orally administered to the rats. At 5 or 20 hr after administration, the rats were anesthetized with an intraperitoneal injection of sodium pentobarbital (60 mg/kg), and liver slices and epididymal adipose tissues were collected.\n(§3) To the adipose tissues were rapidly added 3 volumes of an ice-cold homogenization buffer, and the mixtures were homogenized using a Polytron homogenizer. The homogenates were centrifuged at 600×g, 4° C. for 10 min to obtain the supernatant. The supernatants were centrifuged at 16,000×g, 4° C. for 10 min to collect the precipitates. The precipitates were washed by resuspension in the homogenization buffer (1 mL) and centrifuged in the same manner. The precipitates were frozen with liquid nitrogen and stored at −80° C. as the adipose tissue mitochondrial fraction.\n(§4) The mitochondrial fractions were thawed and suspended with the sample buffer (0.25 mol/L sucrose, 20 mmol/L tris(hydroxymethyl)aminomethane hydrochloride (pH 7.5), 50 mmol/L potassium chloride, and 1 mL/L 4-(1,1,3,3-tetramethylbutyl)phenyl-polyethylene glycol (Triton X-100)). Active PDH activity (PDHa activity) and total PDH activity (PDHt activity) were measured to evaluate the PDH activity. For the measurement of the PDHt activity, equal amounts of the mitochondrial suspension and the activation buffer (0.25 mol/L sucrose, 20 mmol/L tris(hydroxymethyl)aminomethane hydrochloride (pH 7.5), 50 mmol/L potassium chloride, 1 mL/L Triton X-100, 4 mmol/L calcium chloride, 40 mmol/L magnesium chloride, 10 mmol/L sodium dichloroacetate) were mixed, and the mixtures were incubated at 37° C. for 10 min. Forty microliters of the mitochondrial suspensions diluted with a sample buffer were added to a 96-well microplate for activity measurement and blank measurement. Then 180 μL of the reaction mixture (0.056 mmol/L potassium phosphate buffer (pH 7.5), 5.6 mmol/L DL-carnitine, 2.8 mmol/L NAD, 0.22 mmol/L thiamin pyrophosphate, 0.11 mmol/L Coenzyme A, 1.1 mL/L Triton X-100, 1.1 mmol/L magnesium chloride, 1.1 g/L bovine serum albumin, 0.67 mmol/L INT, 7.2 μmol/L phenazine methosulfate, 28 mmol/L sodium oxamate) was added to each well, and then 20 μL of 50 mmol/L sodium pyruvate for activity measurement or water for blank measurement were added. The mixtures were incubated at room temperature under shading. The absorbances at 500-750 nm, which were attributable to reduction of INT, the final electron acceptor, were measured using a microplate reader over time and the changes in the absorbance were calculated. The PDH activity was calculated by subtraction of the change in absorbance of the blank well from that of the activity measurement well. The percentage of the PDHa activity to the PDHt activity was calculated and taken as an index of the PDH activation."}, "human PDHK2 (hPDHK2)": {"molecular_target": "human PDHK2 (hPDHK2) (Homo sapiens (Human), UniProt Q15119)", "test": "Inhibitory action of PDHK2 activity in vitro (residual PDH activity after kinase reaction)", "type": "biochemical", "conditions": "monohydrate", "procedure": "(§5) The inhibitory action of PDHK activity was assessed indirectly by measuring the residual PDH activity after kinase reaction in the presence of a test compound.\nIn the case of human PDHK2 (hPDHK2, Genbank Accession No. BC040478.1), modified hPDHK2 cDNA wherein FLAG-Tag sequence was added to the N terminus of hPDHK2 cDNA clone (pReceiver-M01/PDK2-GeneCopoeia) was prepared by PCR and cloned into a vector (pET17b-Novagen). The recombinant construct was transformed into Escherichia coli (DH5α-TOYOBO). The recombinant clones were identified, and plasmid DNA was isolated and subjected to the DNA sequence analysis. One clone which had the expected nucleic acid sequence was selected for expression work.\nFor expression of hPDHK2 activity, Escherichia coli strain BL21(DE3) cells (Novagen) were transformed with the pET17b vector containing modified hPDHK2 cDNA. The Escherichia coli were grown to an optical density 0.6 ([…]) at 30° C. Protein expression was induced by the addition of 500 μmol/L isopropyl-β-thiogalactopyranoside. The Escherichia coli were cultured at 30° C. for 5 hr and harvested by centrifugation. Resuspension of the Escherichia coli paste was disrupted by a microfluidizer. FLAG-Tagged protein was purified using FLAG affinity gel. […]\n0.05 U/mL PDH and 0.8 μg/mL hPDHK2 were mixed in a buffer (50 mmol/L 3-morpholinopropanesulfonic acid (pH 7.0), 20 mmol/L dipotassium hydrogen phosphate, 60 mmol/L potassium chloride, 2 mmol/L magnesium chloride, 0.4 mmol/L EDTA, and 0.2% Pluronic F-68, 2 mmol/L dithiothreitol), and the mixture was incubated at 4° C. overnight to obtain a PDH/hPDHK2 complex. […] The mixture was incubated at room temperature for 90 min, and the residual PDH activity was measured. The absorbance at 340 nm before and after PDH reaction was measured using a microplate reader to detect NADH produced by the PDH reaction. The hPDHK2 inhibition rate (%) of the test compound was calculated from the formula [{(PDH activity of test compound−PDH activity of control)/PDH activity of blank−PDH activity of control)}×100]."}, "liver PDH activity": {"tested_on": "liver PDH activity", "test": "Ex vivo PDH activation assay, liver", "type": "in vivo, Sprague-Dawley rats", "conditions": "non-fasting SD rats, vehicle 13 ± 3, mean ± S.D. (n = 3)", "procedure": "as §1, §2\nas §3, with “liver slices” for “adipose tissues”, “9” for “3”, “of” for “of an”, “buffer (0.25 mol/L sucrose, 5 mmol/L tris(hydroxymethyl)aminomethane hydrochloride (pH 7.5), 2 mmol/L EDTA),” for “buffer,”, “supernatants (1 mL)” for “supernatants”, “liver” for “adipose tissue”\nas §4"}, "human PDHK1 (hPDHK1)": {"molecular_target": "human PDHK1 (hPDHK1) (Homo sapiens (Human), UniProt Q15118)", "sequence (Q15118 29-436)": "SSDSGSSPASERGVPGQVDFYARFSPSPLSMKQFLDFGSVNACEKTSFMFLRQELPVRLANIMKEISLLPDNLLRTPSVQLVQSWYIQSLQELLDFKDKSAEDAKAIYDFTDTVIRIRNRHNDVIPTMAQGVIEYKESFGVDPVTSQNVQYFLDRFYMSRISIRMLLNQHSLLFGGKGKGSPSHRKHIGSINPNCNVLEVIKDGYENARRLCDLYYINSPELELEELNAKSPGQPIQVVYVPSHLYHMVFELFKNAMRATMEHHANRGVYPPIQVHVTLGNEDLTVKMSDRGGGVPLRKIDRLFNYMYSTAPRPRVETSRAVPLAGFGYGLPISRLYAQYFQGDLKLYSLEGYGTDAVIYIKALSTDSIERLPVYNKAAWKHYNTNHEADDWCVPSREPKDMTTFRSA", "test": "Inhibitory action of PDHK1 activity in vitro (residual PDH activity after kinase reaction)", "type": "biochemical", "procedure": "as §5\nThe recombinant construct was transformed into Escherichia coli (DH5α-TOYOBO). The recombinant clones were identified, and plasmid DNA was isolated and subjected to the DNA sequence analysis. One clone which had the expected nucleic acid sequence was selected for expression work.\nThe Escherichia coli were grown to an optical density 0.6 ([…]) at 30° C. Protein expression was induced by the addition of 500 μmol/L isopropyl-β-thiogalactopyranoside. The Escherichia coli were cultured at 30° C. for 5 hr and harvested by centrifugation. Resuspension of the Escherichia coli paste was disrupted by a microfluidizer.\nThe eluted fractions containing FLAG-Tagged protein were pooled, dialyzed against 20 mmol/L HEPES-NaOH, 150 mmol/L sodium chloride, 0.5 mmol/L ethylenediamine tetraacetic acid (EDTA), 1% ethylene glycol, and 0.1% Pluronic F-68 (pH 8.0), and preserved at −80° C.\nThe mixture was incubated at room temperature for 90 min, and the residual PDH activity was measured.\nThe absorbance at 340 nm before and after PDH reaction was measured using a microplate reader to detect NADH produced by the PDH reaction."}, "[2]": {"conditions": "Table 2, 5 hr after oral 3 mg/kg"}, "[3]": {"conditions": "Table 2, 20 hr after oral 3 mg/kg"}},
  "data": [
    {"compound": "CC(C)(O)CCOc1cc(-c2cnn(C(C)(C)C(N)=O)c2)c2c(c1)[C@@](O)(C(F)(F)F)c1ccccc1-2", "note": "[Compound (2h), 2-{4-[(9R)-9-hydroxy-2-(3-hydroxy-3-methylbutyloxy)-9-(trifluoromethyl)-9H-fluoren-4-yl]-1H-pyrazol-1-yl}-2-methylpropanamide monohydrate]", "values": [
      {"measurement": "PDHa activity (% of PDHt activity)", "setting": "[1]; [2]", "result": "59 ± 2 % of PDHt activity"},
      {"measurement": "PDHa activity (% of PDHt activity)", "setting": "[1]; [3]", "result": "44 ± 12 % of PDHt activity"},
      {"measurement": "IC50", "setting": "human PDHK2 (hPDHK2)", "result": 4.9, "unit": "nM"},
      {"measurement": "PDHa activity (% of PDHt activity)", "setting": "liver PDH activity; [2]", "result": "59 ± 6 % of PDHt activity"},
      {"measurement": "PDHa activity (% of PDHt activity)", "setting": "liver PDH activity; [3]", "result": "31 ± 5 % of PDHt activity"},
      {"measurement": "IC50", "setting": "human PDHK1 (hPDHK1)", "result": 6.6, "unit": "nM"}
    ]}
  ]
}
